Laboratory results as given in patent EP4613329A1, “COMPOUND FOR INHIBITING BRD PROTEIN” (Benobio Co., Ltd., priority 2024, dated 2025).

Assays:
[1] = test system: retinal degeneration mouse model; experiment: Electroretinogram (ERG) in blue LED-induced retinal degeneration mouse model; assay type: in vivo, albino BALB/c mice; details: compound 24 nM, Com. Ex. 4 25 mg/kg; for Wavelength enhanced multiple compared to normal saline-treated group, Average value: average of a-wave and b-wave, intravitreal; for Wavelength enhanced multiple compared to normal saline-treated group, a-wave / Wavelength enhanced multiple compared to normal saline-treated group, b-wave: single intravitreal injection 1 hour after LED exposure
Procedure: In order to fabricate a retinal degeneration model, 7-week-old male albino BALB/c mice were used. Three mice were randomly assigned to each test group, and light and dark were maintained at 12-hour intervals. Each mouse was dark-adapted for 24 hours and then the pupils were dilated with 0.5% tropicamide and 0.5% phenylephrine hydrochloride eye drops (Santen, Osaka, Japan) 30 minutes before blue LED exposure. Unanesthetized mice were exposed to 2,000 lux of a blue LED (460 ± 10 nm) for 2 hours in a cage with reflective interiors. The light intensity was measured using an LED photometer (model TM-201L, TENMARS Electronics, Taipei, Taiwan). After exposure to blue LED, the mice were kept in the dark for 24 hours and then resumed on a 12-hour light/dark cycle for 3 days.
In a test substance control test, mice with retinal degeneration were divided into a normal saline-administered group and a compound-administered group (24 nM) of the present disclosure, and 3 mice were randomly assigned to each test group. A positive control test was divided into a normal saline-administered group and an Eyela (25 mg/kg mouse body weight)-administered group (Comparative Example 4), and three mice were randomly assigned to each test group.
All test groups were administered as a single dose by intravitreal injection 1 hour after LED exposure.
That is, mice were stored in a completely dark room for 16 hours before ERG recordings. All animals were anesthetized intraperitoneally with zolazepam (20 mg/kg) and xylazine (7.5 mg/kg). The cornea was coated with hydroxypropyl methylcellulose gel and covered with a gold ring contact electrode. Ground and reference electrodes were disposed subcutaneously on the tail and ears, respectively. Stimuli were short white flashes delivered through a Ganzfeld stimulator (UTAS-3000; LKC Technologies, Gaithersburg, MD, USA). The signal was amplified and filtered through a digital band-pass filter in the range of 5 to 300 Hz to generate a and b waves. Scotopic ERG, and rod-mediated responses were obtained at increasing light intensities of 0.025 and 3.96 cd/s • m^2. Photopic, cone-mediated responses were obtained after 5-min light adaptation to background light intensity. The recordings were obtained at the light intensity of 6.28 cd/s • m^2. Each recording was the average of three responses obtained within a 15-second stimulation interval. A-wave amplitude was measured from a baseline to the maximum a-wave peak, and b-wave amplitude was measured from the maximum a-wave peak to the maximum b-wave peak.

[2] = target: T1, BRD2 (BD1) (Homo sapiens, UniProt P25440); experiment: Binding inhibitory effect on BRD2 protein (AlphaScreen, GST-BRD2 (BD1) / biotinylated acetyl-histone H4 peptide); details: 100 nM GST-BRD2 (BD1), 100 nM biotinylated acetyl-histone H4 (Lys5, 8, 12, 16) peptide
T1 construct: a bromodomain of BRD2 (BD1) and BRD3 (BD1), one of the BRD protein family

[3] = target: T2, BRD3 (BD1) (Homo sapiens, UniProt Q15059); experiment: Binding inhibitory effect on BRD3 protein (same manner as Experimental Example 1-1)
T2 construct: a bromodomain of BRD2 (BD1) and BRD3 (BD1), one of the BRD protein family; GST

[4] = test system: macular degeneration animal model; experiment: Laser burn-induced macular degeneration animal model, OCT and FFA image analysis; assay type: in vivo, mouse; details: compounds 0.022 µg/eye, Com. Ex. 4 20 µg/eye
Procedure: After the mouse was subjected to general anesthesia, the eye was applied with anesthetic eye drops to be subjected to additional local anesthesia and additionally induce mydriasis. A macular degeneration animal model was prepared by destroying the Bruch's membrane by inducing laser burn according to macular degeneration induction conditions. […] On day 11 of macular degeneration induction, the mice were subjected to general anesthesia and then injected intraperitoneally with a fluorescent contrast agent. The mouse was placed on the sacrifice table, lubricating gel was dropped into the corresponding eye, and an OCT lens was brought into contact with the mouse's cornea. Image analysis for fluorescein fundus angiography (FFA) and OCT was performed using the Image-J program.

T1 sequence (P25440 74-180 limits assumed, species assumed): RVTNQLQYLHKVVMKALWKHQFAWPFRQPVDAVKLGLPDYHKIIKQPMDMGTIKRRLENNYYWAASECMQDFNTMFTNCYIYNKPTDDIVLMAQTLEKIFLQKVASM
T2 sequence (Q15059 34-140 limits assumed, species assumed): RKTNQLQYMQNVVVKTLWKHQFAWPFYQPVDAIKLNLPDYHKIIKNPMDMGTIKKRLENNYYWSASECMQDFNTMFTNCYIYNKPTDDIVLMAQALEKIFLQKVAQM

| Wavelength enhanced multiple compared to normal saline-treated group, Average value [1] | Wavelength enhanced multiple compared to normal saline-treated group, a-wave [1] | Wavelength enhanced multiple compared to normal saline-treated group, b-wave [1] | IC50 [2] [µM] | IC50 [3] [µM] | Structure (SMILES) | Lesion size compared to negative control group (FFA) ([4]; FFA imaging, day 11, negative control = excipient) [%] | CTF value ([4]; FFA imaging, day 11 of macular degeneration induction, both eyes) | Lesion size compared to negative control group (OCT) ([4]; OCT imaging, day 11, negative control = excipient) [%] | Volume of lesion ([4]; OCT imaging, day 11 of macular degeneration induction, both eyes) |
| --- | --- | --- | --- | --- | --- | --- | --- | --- | --- |
| 1.32 | 1.25 | 1.38 | 10.9 | 3.77 | CNC(=O)CC1C(=O)NCCN1Cc1oc(-c2ccccc2-c2cccc3c2CN(C)C3=O)cc1C (stereo not shown) [Compound 42, 2-methyl-4-(2-(5-(3-methyl(N-methyl-2-(3-oxopiperazine-2yl)acetamidyl)methyl)furan-2-yl)phenyl)isoindoline-1-one] | – | – | – | – |
| 1.38 | 1.45 | 1.31 | 9.5 | 4.76 | CN1Cc2c(cccc2-c2ccccc2-c2ccc(COCN3CCC(F)(F)CC3)o2)C1=O [Compound 37, 2-methyl-4-(2-(5-((((4,4-difluoropiperidine-1-yl)methoxy)-3-carboxamidyl)methyl)furan-2-yl)phenyl)isoindoline-1-one] | – | – | – | – |
| 2.30 | 2.17 | 2.42 | 13.9 | 1.16 | CNC(=O)C1(Cc2ccc(F)cc2)CCN(Cc2ccc(-c3ccccc3-c3cccc4c3CN(C)C4=O)o2)CC1 [Compound 21, 2-methyl-4-(2-(5-(((4-(4-fluorobenzyl)-4'-carboxamidyl)piperidine)methyl)furan-2-yl)phenyl)isoindoline-1-one] | – | – | – | – |
| 1.33 | 1.31 | 1.35 | 10.9 | 4.36 | CNC(=O)C1(Cc2ccccc2)CCCN1Cc1ccc(-c2ccccc2-c2cccc3c2CN(C)C3=O)o1 (stereo not shown) [Compound 28] | 35.40 | 325,936 Pixels | 51.99 | 1,132,542 µm^3 |
| 2.04 | 2.05 | 2.03 | 6.51 | 2.67 | CN1Cc2c(cccc2-c2ccccc2-c2ccc(CNCc3cnn(C)c3)o2)C1=O [Compound 18, 2-methyl-4-(2-(5-((((1-methyl-1H-pyrazole-4yl)methyl)amino)methyl)furan-2-yl)phenyl)isoindoline-1-one] | – | – | – | – |
| 1.33 | 1.29 | 1.36 | 7.65 | 3.65 | CN1Cc2c(cccc2-c2ccccc2-c2ccc(CN3CCOCC3)o2)C1=O [Compound 13, 2-methyl-4-(2-(5-(morpholinomethyl)furan-2-yl)phenyl)isoindoline-1-one] | – | – | – | – |
